Assay results as given in ChEMBL document CHEMBL1201862, “PubChem BioAssay data set” (2004).
Values joined by “and” are separate entries in the source; they are usually repeats but may differ in a detail not shown here. Equal values may be shown once.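 Compound exposure: 48 hours, 5 concentrations, 96-well plates. GI50 is the concentration that inhibits growth by half.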 Active and inactive are the calls of the source. Rule as the data show it: active = GI50 up to about 1.1 µM and inactive = higher.

Assays:
Assay in all cases: growth of human tumour cells (NCI), 48 h
NCI-H460 = test system: NCI-H460
RPMI-8226 = test system: RPMI-8226
U-251 = test system: U-251
SR = test system: SR
OVCAR-4 = test system: OVCAR-4
Malme-3M = test system: Malme-3M
IGROV-1 = test system: IGROV-1
786-0 = test system: 786-0
UACC-62 = test system: UACC-62
NCI-H522 = test system: NCI-H522
SK-OV-3 = test system: SK-OV-3
OVCAR-8 = test system: OVCAR-8
SNB-19 = test system: SNB-19
SN12C = test system: SN12C
NCI-H226 = test system: NCI-H226
HL-60 = test system: HL-60

Row | SMILES | GI50 (NCI-H460) | GI50 (RPMI-8226) | GI50 (U-251) | GI50 (SR) | GI50 (OVCAR-4) | GI50 (Malme-3M) | GI50 (IGROV-1) | GI50 (786-0) | GI50 (UACC-62) | GI50 (NCI-H522) | GI50 (SK-OV-3) | GI50 (OVCAR-8) | GI50 (SNB-19) | GI50 (SN12C) | GI50 (NCI-H226) | GI50 (HL-60)
1 | S=c1sc2c(Cl)ncnc2n1-c1ccccc1 | 15.7 µM (inactive) | 23.8 µM (inactive) | 16 µM (inactive) | 3.27 µM (inactive) | 18.8 µM (inactive) | 10.9 µM (inactive) | 15 µM (inactive) | 15.1 µM (inactive) | 9.62 µM (inactive) | 2.01 µM (inactive) | 20 µM (inactive) | 16.1 µM (inactive) | 18.2 µM (inactive) | 15.8 µM (inactive) | 13.4 µM (inactive) | –
2 | CC1C(c2ccccc2)=CCON1c1ccccc1 (centres undefined) | > 100 µM (inactive) | > 100 µM (inactive) | > 100 µM (inactive) | > 100 µM (inactive) | > 100 µM (inactive) | > 100 µM (inactive) | > 100 µM (inactive) | > 100 µM (inactive) | > 100 µM (inactive) | > 100 µM (inactive) | > 100 µM (inactive) | > 100 µM (inactive) | > 100 µM (inactive) | > 100 µM (inactive) | > 100 µM (inactive) | > 100 µM (inactive)
3 | NC(=O)/C(=N\NC(=O)C[n+]1ccccc1)C1NC(=O)NC1=O (centres undefined) | > 100 µM (inactive) | > 100 µM (inactive) | – | > 100 µM (inactive) | > 100 µM (inactive) | > 100 µM (inactive) | > 100 µM (inactive) | > 100 µM (inactive) | > 100 µM (inactive) | – | > 100 µM (inactive) | > 100 µM (inactive) | > 100 µM (inactive) | > 100 µM (inactive) | > 100 µM (inactive) | > 100 µM (inactive)
4 | CCCCN(CC)CC(C(C)=O)c1c(O)c2ccccc2oc1=O (centres undefined) | > 100 µM (inactive) | > 100 µM (inactive) | > 100 µM (inactive) | > 100 µM (inactive) | > 100 µM (inactive) | > 100 µM (inactive) | > 100 µM (inactive) | > 100 µM (inactive) | > 100 µM (inactive) | > 100 µM (inactive) | > 100 µM (inactive) | > 100 µM (inactive) | > 100 µM (inactive) | > 100 µM (inactive) | > 100 µM (inactive) | > 100 µM (inactive)
5 | Cc1ccc(S(=O)(=O)OCC23CCC(C4CC42)C2CC23)cc1 (centres undefined) | 88.1 µM (inactive) | 36.3 µM (inactive) | > 100 µM (inactive) | 38.5 µM (inactive) | 28.1 µM (inactive) | 75.5 µM (inactive) | > 100 µM (inactive) | > 100 µM (inactive) | 65.6 µM (inactive) | – | > 100 µM (inactive) | > 100 µM (inactive) | > 100 µM (inactive) | > 100 µM (inactive) | 95.7 µM (inactive) | 17.7 µM (inactive)
6 | C[C@]12CCC3[C@@H](CC[C@@H]4c5nonc5CC[C@]34C)C1CC[C@@H]2O (some centres undefined) | 25.9 µM (inactive) | 14.5 µM (inactive) | 19.9 µM (inactive) | – | 27.3 µM (inactive) | 24.5 µM (inactive) | 41.8 µM (inactive) | 25.3 µM (inactive) | 30.9 µM (inactive) | 17.8 µM (inactive) | 30.5 µM (inactive) | 35.8 µM (inactive) | 41.6 µM (inactive) | 22.1 µM (inactive) | 38.3 µM (inactive) | 18.3 µM (inactive)
7 | Cc1ccc(NCC(=O)N2CC(=O)Nc3ccccc32)c(C)c1 | > 100 µM (inactive) | > 100 µM (inactive) | > 100 µM (inactive) | > 100 µM (inactive) | > 100 µM (inactive) | > 100 µM (inactive) | – | > 100 µM (inactive) | 95.1 µM (inactive) | > 100 µM (inactive) | > 100 µM (inactive) | > 100 µM (inactive) | > 100 µM (inactive) | > 100 µM (inactive) | > 100 µM (inactive) | > 100 µM (inactive)
8 | CCOC(=O)C(C(=O)c1ccccc1-c1ccccc1C(=O)O)=P(c1ccccc1)(c1ccccc1)c1ccccc1 | 16.5 µM (inactive) | 13.9 µM (inactive) | 18.3 µM (inactive) | 23.6 µM (inactive) | 18 µM (inactive) | 22.4 µM (inactive) | 20.6 µM (inactive) | 37.8 µM (inactive) | 17.4 µM (inactive) | – | – | 16.9 µM (inactive) | 25.8 µM (inactive) | 30.5 µM (inactive) | 24.4 µM (inactive) | 19.8 µM (inactive)
9 | CCN(CC)CC(C)(C)C(=O)/C=C/c1cccc(/C=C/C(=O)C(C)(C)CN(CC)CC)c1 | 0.692 µM (active) | 2.06 µM (inactive) | 0.219 µM (active) | 0.305 µM (active) | 0.442 µM (active) | 1.59 µM (inactive) | 1.02 µM (active) | 0.579 µM (active) | 1.74 µM (inactive) | – | 1.45 µM (inactive) | 0.333 µM (active) | 1.79 µM (inactive) | 0.303 µM (active) | 1.76 µM (inactive) | –
10 | Cc1cc2c(c(C#N)c1C)NC(=O)CCC2=O | > 100 µM (inactive) | > 100 µM (inactive) | > 100 µM (inactive) | > 100 µM (inactive) | > 100 µM (inactive) | – | > 100 µM (inactive) | > 100 µM (inactive) | > 100 µM (inactive) | – | – | > 100 µM (inactive) | – | > 100 µM (inactive) | – | > 100 µM (inactive)
11 | COc1ccc(-c2cc(-c3ccco3)c(C#N)c(=O)n2C2OC(OC(=O)c3ccccc3)C(OC(=O)c3ccccc3)C2OC(=O)c2ccccc2)cc1 (centres undefined) | > 100 µM (inactive) | > 100 µM (inactive) | 33.1 µM (inactive) | > 100 µM (inactive) | > 100 µM (inactive) | > 100 µM (inactive) | > 100 µM (inactive) | > 100 µM (inactive) | > 10 µM (inactive) | 63.5 µM (inactive) | – | > 100 µM (inactive) | 62.5 µM (inactive) | > 100 µM (inactive) | > 100 µM (inactive) | –
12 | CC(=O)OCC12CC(CC1OC(C)=O)c1ccccc12 (centres undefined) | > 100 µM (inactive) | > 100 µM (inactive) | > 100 µM (inactive) | > 100 µM (inactive) | > 100 µM (inactive) | > 100 µM (inactive) | > 100 µM (inactive) | > 100 µM (inactive) | > 100 µM (inactive) | – | > 100 µM (inactive) | > 100 µM (inactive) | > 100 µM (inactive) | > 100 µM (inactive) | > 100 µM (inactive) | > 100 µM (inactive)
13 | COc1cc2c(Cc3cc(OCc4ccccc4)ccc3N)nccc2c(OC)c1OC | > 10 µM (inactive) | > 10 µM (inactive) | > 10 µM (inactive) | > 10 µM (inactive) | – | > 10 µM (inactive) | > 10 µM (inactive) | > 10 µM (inactive) | > 10 µM (inactive) | > 10 µM (inactive) | > 10 µM (inactive) | > 10 µM (inactive) | > 10 µM (inactive) | > 10 µM (inactive) | > 10 µM (inactive) | > 10 µM (inactive)
14 | COc1ccc(C(=O)O/N=C2/CCCCC2CN(C)C)cc1 (centres undefined) | > 100 µM (inactive) | > 100 µM (inactive) | > 100 µM (inactive) | > 100 µM (inactive) | > 100 µM (inactive) | > 100 µM (inactive) | > 100 µM (inactive) | > 100 µM (inactive) | > 100 µM (inactive) | > 100 µM (inactive) | > 100 µM (inactive) | > 100 µM (inactive) | – | > 100 µM (inactive) | > 100 µM (inactive) | > 100 µM (inactive)
15 | COc1ccccc1/C=N/C12CC3CC(CC(C3)C1)C2 | > 100 µM (inactive) | > 100 µM (inactive) | > 100 µM (inactive) | > 100 µM (inactive) | > 100 µM (inactive) | > 100 µM (inactive) | – | > 100 µM (inactive) | > 100 µM (inactive) | > 100 µM (inactive) | > 100 µM (inactive) | > 100 µM (inactive) | > 100 µM (inactive) | > 100 µM (inactive) | > 10 µM (inactive) | 73.6 µM (inactive)
16 | N#CC(c1ccccc1)c1nc2ccc(N)cc2[n+]([O-])c1C(C#N)c1ccccc1 (centres undefined) | 73.3 µM (inactive) | – | 59.6 µM (inactive) | 23.8 µM (inactive) | 74 µM (inactive) | 99.5 µM (inactive) | > 100 µM (inactive) | > 100 µM (inactive) | 47.3 µM (inactive) | 46.9 µM (inactive) | > 100 µM (inactive) | 56.4 µM (inactive) | > 100 µM (inactive) | 79.1 µM (inactive) | > 100 µM (inactive) | 34.9 µM (inactive)
17 | C[C@@H]1CC[C@@]2(C)OC(c3ccccc3)[C@H](CO)N2C1=O (some centres undefined) | > 100 µM (inactive) | > 100 µM (inactive) | > 100 µM (inactive) | > 100 µM (inactive) | > 100 µM (inactive) | > 100 µM (inactive) | > 100 µM (inactive) | > 100 µM (inactive) | > 100 µM (inactive) | – | – | > 100 µM (inactive) | > 100 µM (inactive) | > 100 µM (inactive) | – | –
18 | O=c1ncccn1[C@@H]1O[C@H](CO)[C@@H](O)[C@@H]1F | – | > 100 µM (inactive) | > 100 µM (inactive) | > 68.2 µM (inactive) | > 100 µM (inactive) | > 100 µM (inactive) and > 67.1 µM (inactive) | > 100 µM (inactive) | > 100 µM (inactive) | – | > 100 µM (inactive) | > 100 µM (inactive) | > 100 µM (inactive) and > 95.9 µM (inactive) | > 100 µM (inactive) | > 100 µM (inactive) | > 100 µM (inactive) | > 100 µM (inactive)
19 | CCOC(=O)C(Cc1cn(S(=O)(=O)c2ccccc2)c2ccccc12)(NC(C)=O)C(=O)OCC | 32.7 µM (inactive) | 13.1 µM (inactive) | 40.1 µM (inactive) | 15.2 µM (inactive) | 33.3 µM (inactive) | 37.9 µM (inactive) | 46.7 µM (inactive) | 72.8 µM (inactive) | 27.9 µM (inactive) | 15.3 µM (inactive) | – | 33 µM (inactive) | 34.8 µM (inactive) | – | 21.3 µM (inactive) | 16.5 µM (inactive)
